# Reference: patent US4600540A, “Benzoylpropionic acid derivatives” (Taisho Pharmaceutical Co., Ltd., priority 1984, dated 1986)
# How the values were obtained:
# [1] = system: adjuvant arthritis in Lewis rats; experiment: Effect on adjuvant arthritis in Lewis rats (Cellular immunostimulation); assay type: in vivo; details: 100 mg/Kg orally once a day, 21 days after sensitization; for Tumor stimulating ratio: control = 1.00; for Edema volume: hind paw
# Protocol: Effect on adjuvant arthritis in Lewis rats
# (Cellular immunostimulation)
# 10 Female Lewis rats, 9 weeks old, weighing 180-190 g were used per each group. Rats of each group were administered subcutaneously into the tail with a suspension of 0.6 mg of heated killed mycobaterium butyricum in liquid parafin. Each of the compounds I, suspended in a 5% gum arabic solution, was administered orally once a day to rats of different groups in an amounts of 100 mg/Kg after sensitization. As a comparative drug was used D-penicillamine in the form of an aqueous solution, which was administered orally to rats of different groups in a manner similar to the compound I.
# In intervals were measured the edema volume of the hind paw of rats in the drug-treated groups and the control (the drug-untreated groups) for evaluating the tumor stimulating activity of the drug.
# [2] = system: adjuvant arthritis in Sprague-Dawley rats; experiment: Effect on adjuvant arthritis in Sprague-Dawley rats (chronic rheumatoid arthritis model); assay type: in vivo; details: 21 days after sensitization; for Edema volume: hind paw; for Paw edema suppression rate: vs control
# Protocol: Effect on adjuvant arthritis is Sprague-Dawley rats
# (chronic rheumatoid arthritis model)
# 10 Female Sprague-Dawley rats, 8 weeks old, weighting 160-190 g were used per each group. Rats of each group were administered subcutaneously into the tail with a suspension of 0.6 mg of heated killed mycobaterium butyricum in liquid parafin. Each of the compounds I, suspended in a 5% gum arabic solution, was administered orally once a day to rats of different groups in different amounts after sensitization.
# At intervals were measured the edema volume of the hind paw of rats in the drug-treated groups and the control (drug-untreated groups) for evaluating tumor suppression activity of the compounds I.
# [3] = system: delayed-type footpad reaction; experiment: Effect on delayed-type footpad reaction (Cellular immunomodulating effect); assay type: in vivo, Balb/c mice; details: 2 hours after sensitization
# Protocol: Effect on delayed-type footpad reaction
# (Cellular immunomodulating effect)
# 8 Female Balb/c mice, 8-12 weeks oil, weighing 20-24 g were used per each group. Mice of each group were administered subcutaneously into the right footpad with 1×10^8 sheep red blood cells as antigen to be sensitized.
# Each of the compounds I, suspended in a 0.5% gum arabic saline solution, was administered intraperitoneally to mice of different groups in different amounts 2 hours after the sensitization.
# Four days after the sensitization, mice of each group were administered subcutaneously into the left footpad with 1×10^8 sheep red blood cells, and the increase of thickness of swelling footpad was measured for evaluating the suppression to the delayed-type footpad reaction according to the method of Lagrange et al [Journal of Experimental Medicine, vol. 139, page 528,(1974)].
# [4] = system: spleen lymphocytes; experiment: Stimulating effect of lymphocytes transformation (3H-thymidine uptake, mitogenation); assay type: cell-based, BDF1 mice; details: Mus musculus, Lymphocyte, B medium (with lipopolysaccharide 0.2 μg/ml); 0.3 μg/ml
# Protocol: Stimulating effect of lymphocytes transformation
# (Immunomodulative stimulating effect)
# Mediums of RPMI-1640 (produced by GIBCO Co.) containing the compound I only (A medium), and containing a mitogen (lipopolysaccharide 0.2 μg/ml) and the compound I (B medium) were prepared.
# 2×10^5 of spleen lymphocytes of female BDF1 mice, 8-12 weeks old, weighing 20-22 g were cultured on each of the mediums at 37° C. for 48 hours under a 5% carbon dioxide in air. 0.25 μCi of ^3 H-thymidine was added to each of the mediums, and cultivation was further carried out for 22 hours. After completion of the cultivation, the lymphocytes were collected and their radio activity was measured to calculate the ^3 H-thymidine uptake into the lymphocytes for evaluating mitogenation.
# The results were expressed as percent to ^3 H-thymidine uptake into lymphocytes in the control medium (not containing the compound I) and shown in Table 4.
# [5] = system: spleen lymphocytes; experiment: as above; assay type: cell-based, BDF1 mice; details: Mus musculus, Lymphocyte; for activity at 0.3 µg/mL: 0.3 μg/ml; for activity at 3 µg/mL: 3 μg/ml; for activity at 30 µg/mL: 30 μg/ml; for activity at 1 µg/mL: 1 μg/ml; for activity at 10 µg/mL: 10 μg/ml
# [6] = Acute toxicity; details: rat, in vivo; oral, male Wister rats, observed for 7 days
# Protocol: 7 male, 7 weeks old, Wister rats weighing 149-160 g were used per each for test. Rats were administered orally with a suspension of the compound I of Example 1 in a 5% gum arabic solution and observed for 7 days after administration, and the LD50 value was calculated.
# [7] = B medium (with lipopolysaccharide 0.2 μg/ml)
smiles,measurement,setting,value
"CCOC(=O)C(CSC(C)=O)CC(=O)c1ccccc1 (centres unmarked) [Example 16, ethyl 2-acethylthiomethyl-3-benzoylpropionate]",Tumor stimulating ratio,[1],1.17
same,Edema volume,[1],3.18 ± 0.17 mL
"CC(C)(S)[C@@H](N)C(=O)O [D-penicillamine, reference compound]",Tumor stimulating ratio,[1],1.38
same,Edema volume,[1],3.76 ± 0.11 mL
"O=C(CC(CSC(=O)c1ccccc1)C(=O)O)c1ccccc1 (centres unmarked) [Example 13, 3-benzoyl-2-benzoylthiomethylpropionic acid]",Tumor stimulating ratio,[1],1.33
same,Edema volume,[1],3.63 ± 0.11 mL
CC(=O)SCC(CC(=O)c1ccc(F)cc1)C(=O)O (centres unmarked) [Example 2],Tumor stimulating ratio,[1],1.27
same,Edema volume,[1],3.46 ± 0.47 mL
CC(=O)SCC(CC(=O)c1ccc(Cl)cc1)C(=O)O (centres unmarked) [Example 3],Tumor stimulating ratio,[1],1.18
same,Edema volume,[1],3.22 ± 0.09 mL
"CC(=O)SCC(CC(=O)c1ccc(Br)cc1)C(=O)O (centres unmarked) [Example 4, 2-acetylthiomethyl-3-(4-bromobenzoyl)propionic acid]",Edema volume,[2]; 30 mg/kg orally once a day,0.64 ± 0.29 mL
same,Paw edema suppression rate,[2]; 30 mg/kg orally once a day,65.8%
same,Edema volume,[2]; 100 mg/kg orally once a day,0.36 ± 0.14 mL
same,Paw edema suppression rate,[2]; 100 mg/kg orally once a day,80.7%
same,Edema volume,[2]; 300 mg/kg orally once a day,0.12 ± 0.09 mL
same,Paw edema suppression rate,[2]; 300 mg/kg orally once a day,93.6%
same,Tumor stimulating ratio,[1],1.20
same,Edema volume,[1],3.27 ± 0.28 mL
same,Increase of thickness of swelling footpad,[3]; 10 mg/kg intraperitoneally,115.6 ± 4.8 × 10^-2 mm
same,Suppression rate of delayed-type footpad reaction,[3]; 10 mg/kg intraperitoneally,8.5
same,Increase of thickness of swelling footpad,[3]; 100 mg/kg intraperitoneally,89.4 ± 5.5 × 10^-2 mm
same,Suppression rate of delayed-type footpad reaction,[3]; 100 mg/kg intraperitoneally,29.3
same,activity at 0.3 µg/mL,[4],115%
same,activity at 0.3 µg/mL,[5]; A medium (compound only),83%
same,activity at 3 µg/mL,[5]; A medium (compound only),97%
same,activity at 30 µg/mL,[5]; A medium (compound only),117%
same,activity at 3 µg/mL,[5]; [7],107%
same,activity at 30 µg/mL,[5]; [7],131%
"CC(=O)SCC(CC(=O)c1ccccc1)C(=O)O (centres unmarked) [Example 1, 2-acethylthiomethyl-3-benzoylpropionic acid]",Edema volume,[2]; 30 mg/kg orally once a day,0.58 ± 0.18 mL
same,Paw edema suppression rate,[2]; 30 mg/kg orally once a day,69.0%
same,Increase of thickness of swelling footpad,[3]; 10 mg/kg intraperitoneally,102.5 ± 10.8 × 10^-2 mm
same,Suppression rate of delayed-type footpad reaction,[3]; 10 mg/kg intraperitoneally,37.7
same,Increase of thickness of swelling footpad,[3]; 100 mg/kg intraperitoneally,80.6 ± 8.0 × 10^-2 mm
same,Suppression rate of delayed-type footpad reaction,[3]; 100 mg/kg intraperitoneally,51.0
same,activity at 0.3 µg/mL,[4],134%
same,LD50 at 168 h,[6],> 1200 mg/kg
same,activity at 0.3 µg/mL,[5]; A medium (compound only),120%
same,activity at 1 µg/mL,[5]; A medium (compound only),114%
same,activity at 3 µg/mL,[5]; A medium (compound only),129%
same,activity at 10 µg/mL,[5]; A medium (compound only),128%
same,activity at 30 µg/mL,[5]; A medium (compound only),149%
same,activity at 1 µg/mL,[5]; [7],146%
same,activity at 3 µg/mL,[5]; [7],177%
same,activity at 10 µg/mL,[5]; [7],217%
same,activity at 30 µg/mL,[5]; [7],241%
COc1ccc(C(=O)CC(CSC(C)=O)C(=O)O)cc1 (centres unmarked) [Example 7],Tumor stimulating ratio,[1],1.25
same,Edema volume,[1],3.41 ± 0.19 mL
